Each structure is given as a SMILES string. ≈ marks a conversion by molar mass, not a printed value.

Test system in one series: not listed separately
The series can be described thus: Solubility in aqueous HEPES buffer by HPLC (Example 33). It is filed as physicochemical. Particulars: kinetic from dmso stock. As to the method: To determine the solubility the compound to be measured is dissolved (e.g, […] of a 5 mM solution in DMSO) in organic solvent (e.g. 198 μl DMSO) as well as in aqueous buffer solution (e.g. 198 μl HEPES buffer). Both solutions are analyzed via analytical HPLC and the areas under the peaks are compared. The value for the organic solution is taken as 100%.
In the case of `CCc1c(N)cc(Cl)c(CC)c1NC(=O)N(Cc1ccc(OC)cc1)c1ccc(C(C)C)cc1` [compound 31, 3-(3-amino-5-chloro-2,6-diethyl-phenyl)-1-(4-isopropyl-phenyl)-1-(4-methoxy-benzyl)-urea], the solubility (usually how much of the substance goes into solution per volume) was determined as 2 µM (≈ 0.96 µg/mL).

The target of a further series is T1, human C5a receptor (CD88) (Homo sapiens, UniProt P21730).
T1 construct: expressed in transfected cells; host or cells: rat basophilic leukemia (RBL) cells, stably transfected
T1 sequence (P21730 1-350): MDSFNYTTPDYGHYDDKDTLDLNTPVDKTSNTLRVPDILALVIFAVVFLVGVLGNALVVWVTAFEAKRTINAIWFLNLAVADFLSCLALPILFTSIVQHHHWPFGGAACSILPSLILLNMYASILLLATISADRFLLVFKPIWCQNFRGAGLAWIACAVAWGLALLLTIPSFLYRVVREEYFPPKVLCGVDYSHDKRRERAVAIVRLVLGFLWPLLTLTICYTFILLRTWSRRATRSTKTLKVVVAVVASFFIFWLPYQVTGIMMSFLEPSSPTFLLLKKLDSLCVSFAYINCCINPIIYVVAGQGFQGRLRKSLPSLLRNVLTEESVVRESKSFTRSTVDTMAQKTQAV
The series can be described thus: Agonism in enzyme release assay without C5a stimulus (Example 32). It is filed as cell-based. Particulars: concentration applied 7.1 μM. On the procedure: The assay has been described by Köhl (Köhl 1997 The Anaphylatoxins. In: Dodds, A. W., Sim, R. B. (Eds.), Complement: A Practical Approach. Oxford: 135). Basophile leukemia cells from rats (RBL), which express the human C5a receptor (CD88), are cultivated in DMEM with 10% fetal calf serum, 100 U/ml penicillin, 100 μg/ml streptomycin and 2 mM glutamin (all constituents are from Biochrome, Berlin) at 37° C. and with 10% CO2 until a confluent layer is obtained. All following details refer to a tissue culture flask with 75 cm^2 surface. The used up medium is removed. The cells are washed with 10 ml PBS (Dulbecco's PBS, Biochrome) and then covered with 3 ml cell dissociation solution (CDS, Sigma). The cells are incubated for 1 minute at room temperature. Then the CDS is removed and the cells are incubated for further 10-15 minutes at 37° C. to detach the cells completely from the flask. 20 μl solution of the compound to be testet are used in the assay. The assay solution must not contain more than 2.8% DMSO. The dilution series are prepared in ⅓ or ½ steps. To the 20 μl of the compound solutions 75 μl RBL cells are added which are prepared as follows: After the detachment of the cells from the flask surface they are taken up with 10 ml HAG-CM (20 mM HEPES; 125 mM NaCl, 5 mM KCl, 1 mM CaCl2, 1 mM MgCl2, 0.5 mM glucose, 0.25% BSA. HEPES preparation: 2.3 g/l HEPES salt+2.66 g/l HEPES acid) thermostated at 37° C. The cells are counted and centrifuged (200 g, 10 min). The cell pellet is taken up with pre-heated HAG-CM, and the cell density is adjusted to 2×10^6 Zellen/ml. The cells are incubated for 5 minutes at 37° C. 2.7 μl of a cytochalasin B solution (1000 μg/ml in DMSO, Sigma) are added per ml cell suspension. The Zellen are incubated for another 3 min at 37° C. Then, 75 μl of the cell suspension are added to the 20 μl solution containing the compounds to be tested. Thus a volume of […] per well is obtained. The cells are again incubated for 10 minutes at 37° C. Then 10 μl hrC5a (10.5 nM in HAG-CM, Sigma) are added per well, which is followed by 5 minutes incubation at 37° C. After this the plates are put on ice and centrifuged for 3 minutes at 1200×g and 4° C. 75 μl of the supernatant are added to 100 μl substrate solution (2.7 mg/ml p-nitrophenyl-N-acetyl-b-D-glucosaminide (Sigma) in 42.5 mM sodium acetate, pH 4.5). The plate is incubated for 1 hour at 37° C. Per well 75 μl 0.4 M glycine (pH 10.4) are added. After this the plate can be measured at a wave length of 405 nm. The IC50 value is determined by solving the four parameter equation y=((A−D)/(1+(x/C)^B))+D.
The only difference is the fact that 30 μl of the substance to be tested are mixed with 75 μl of the cell suspension described in example 28. The cells are not pre-incubated and no C5a is added to stimulate enzyme release.
As to `CCc1c(N)cc(Cl)c(CC)c1NC(=O)N(Cc1ccc(OC)cc1)c1ccc(C(C)C)cc1` [compound 31, 3-(3-amino-5-chloro-2,6-diethyl-phenyl)-1-(4-isopropyl-phenyl)-1-(4-methoxy-benzyl)-urea], the “Agonism (% of the maximum enzyme release induced by C5a)” value stood at 0.12%.

For another series, the target named is T1, human C5a receptor (CD88). Put plainly: C5a induced enzyme (glucosaminidase) release assay in RBL cells expressing the human C5a receptor (Example 28). Particulars: RBL cells with human C5aR; read-out: IC50 for the inhibition of C5a induced enzyme release. It is filed as cell-based. In short, it runs like this:
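Rat basophilic leukemia (RBL) cells expressing human C5a receptor, at 2×10^6 cells/ml, primed with cytochalasin B, then incubated with test compound 10 min at 37 °C.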
`CCc1c(N)cc(Cl)c(CC)c1NC(=O)N(Cc1ccc(OC)cc1)c1ccc(C(C)C)cc1` [compound 31, 3-(3-amino-5-chloro-2,6-diethyl-phenyl)-1-(4-isopropyl-phenyl)-1-(4-methoxy-benzyl)-urea]: the IC50 (in general, the midpoint of a concentration-inhibition curve) stood at 164 nM.

The series is the same for the next values; noted with them: inhibition of C5a induced enzyme release, RBL cells with human C5aR; read-out: Activity-range (antagonistic activity, IC50 enzyme release).
On to `CCc1ccc(N(C(=O)Nc2c(CC)c(N)cc(Cl)c2CC)C(C)c2ccc(C)nc2)cc1` (centres unmarked) [compound 123, 3-(3-amino-5-chloro-2,6-diethyl-phenyl)-1-(4-ethyl-phenyl)-1-[1-(6-methyl-pyridin-3-yl)-ethyl]-urea], for which the IC50 was 60 to 200 nM. On the same count and under the same terms, as for `CCc1c(Cl)cc(NCC(=O)OC(C)(C)C)c(CC)c1NC(=O)N(Cc1ccc(OC)cc1)c1ccc(C(C)C)cc1` [compound 45, {5-chloro-2,4-diethyl-3-[3-(4-isopropyl-phenyl)-3-(4-methoxy-benzyl)-ureido]-phenylamino} acetic acid tert-butyl ester], the figure is 60 to 200 nM; as for `CCc1ccc(N)c(CC)c1NC(=O)N(Cc1ccccc1OC)c1ccc(C(C)C)cc1` [compound 63, 3-(3-amino-2,6-diethyl-phenyl)-1-(4-isopropyl-phenyl)-1-(2-methoxy-benzyl)-urea], 200 to 5000 nM; as for `CCc1c(N)cc(Cl)c(CC)c1NC(=O)N(CC1CCCCC1)c1ccc(C(C)C)cc1` [compound 60, 3-(3-amino-5-chloro-2,6-diethyl-phenyl)-1-cyclohexylmethyl-1-(4-isopropyl-phenyl)-urea], 200 to 5000 nM. Turning to `CCc1ccc(CN(C(=O)Nc2c(CC)c(N)cc(Cl)c2CC)c2ccc(C(C)C)cc2)cc1` [compound 35, 3-(3-amino-5-chloro-2,6-diethyl-phenyl)-1-(4-ethyl-benzyl)-1-(4-isopropyl-phenyl)-urea], the IC50 was 200 to 5000 nM. Still for that read-out and setting: under `CCc1c(N)cc(Cl)c(CC)c1NC(=O)N(Cc1ccc(OC)cc1)c1ccc2c(c1)CCC2` [compound 44, 3-(3-amino-5-chloro-2,6-diethyl-phenyl)-1-indane-5-yl-1-(4-methoxy-benzyl)-urea] stands 200 to 5000 nM; under `CCc1ccc(N)c(CC)c1NC(=O)N(c1ccc(C(C)C)cc1)[C@H](C)c1ccc(C)cc1` [compound 68, (R)-3-(3-amino-2,6-diethyl-phenyl)-1-(4-isopropyl-phenyl)-1-(1-p-tolyl-ethyl)-urea], 200 to 5000 nM. Same read-out and setting: under `CCc1c(Cl)cc(NCc2nccn2C)c(CC)c1NC(=O)N(Cc1ccc(OC)cc1)c1ccc(C(C)C)cc1` [compound 38, 3-{3-chloro-2,6-diethyl-5-[(1-methyl-1H-imidazol-2-ylmethyl)-amino]-phenyl}-1-(4-isopropyl-phenyl)-1-(4-methoxy-benzyl)-urea] stands 200 to 5000 nM; under `CCc1ccc(NCC(N)=O)c(CC)c1NC(=O)N(Cc1ccc(OC)cc1)c1ccc(C(C)C)cc1` [compound 29, 2-{2,4-diethyl-3-[3-(4-isopropyl-phenyl)-3-(4-methoxy-benzyl)-ureido]-phenylamino}-acetamide], 200 to 5000 nM. As to `CCc1c(N)cc(Cl)c(CC)c1NC(=O)N(c1ccc(C(C)C)cc1)[C@@H]1CCCc2ccccc21` [compound 41, (R)-3-(3-amino-5-chloro-2,6-diethyl-phenyl)-1-(4-isopropyl-phenyl)-1-(1,2,3,4-tetrahydro-naphthaline-1-yl)-urea], the IC50 was 200 to 5000 nM. Same read-out and setting: under `CCc1ccc(N)c(CC)c1NC(=O)N(Cc1ccc(Cl)cc1)c1ccc(NC)cc1` [compound 119, 3-(3-amino-2,6-diethyl-phenyl)-1-(4-chloro-benzyl)-1-(4-methylamino-phenyl)-urea] stands 60 to 200 nM; under `CCc1ccc(N(Cc2ccc(N)cc2)C(=O)Nc2c(CC)c(N)cc(Cl)c2CC)cc1` [compound 116, 1-(4-amino-benzyl)-3-(3-amino-5-chloro-2,6-diethyl-phenyl)-1-(4-ethyl-phenyl)-urea], 200 to 5000 nM. On the same count and under the same terms, as for `CCc1c(N)cc(Cl)c(CC)c1NC(=O)N(c1ccc(NC)cc1)C(C)c1ccc2c(c1)ncn2C` (centres unmarked) [compound 138, 3-(3-amino-5-chloro-2,6-diethyl-phenyl)-1-(4-methylamino-phenyl)-1-[1-(1-methyl-1H-benzoimidazol-5-yl)-ethyl]-urea], the figure is 60 to 200 nM. Same read-out and setting: as for `CCc1c(N)cc(Cl)c(CC)c1NC(=O)N(Cc1ccc(C)nc1)c1ccc(CC(F)(F)F)cc1` [compound 126, 3-(3-amino-5-chloro-2,6-diethyl-phenyl)-1-(6-methyl-pyridin-3-ylmethyl)-1-[4-(2,2,2-trifluoro-ethyl)-phenyl]-urea], the figure is 60 to 200 nM; as for `CCc1c(N)cc(Cl)c(CC)c1NC(=O)N(Cc1ccc(Cl)cc1)c1ccc(OC)c(OC)c1` [compound 114, 3-(3-amino-5-chloro-2,6-diethyl-phenyl)-1-(4-chloro-benzyl)-1-(3,4-dimethoxy-phenyl)-urea], 200 to 5000 nM.

`CCc1ccc(N)c(CC)c1NC(=O)N(Cc1ccc(OC)cc1)c1ccc(C(C)C)cc1` [compound 28, 3-(3-amino-2,6-diethyl-phenyl)-1-(4-isopropyl-phenyl)-1-(4-methoxy-benzyl)-urea]: the IC50 lay in the range of 200 to 5000 nM. For `CCc1ccc(N(Cc2cnn(CC)c2)C(=O)Nc2c(CC)c(N)cc(Cl)c2CC)cc1` [compound 91, 3-(3-amino-5-chloro-2,6-diethyl-phenyl)-1-(4-ethyl-phenyl)-1-(1-ethyl-1H-pyrazol-4-ylmethyl)-urea], the IC50 fell in the range of 200 to 5000 nM.

On to `CCc1c(N)cc(Cl)c(CC)c1NC(=O)N(c1ccc(C(C)C)cc1)[C@H]1CCCc2ccccc21` [compound 42, (S)-3-(3-amino-5-chloro-2,6-diethyl-phenyl)-1-(4-isopropyl-phenyl)-1-(1,2,3,4-tetrahydro-naphthaline-1-yl)-urea], for which the IC50 fell in the range of 60 to 200 nM. For `Cc1ccc([C@H](C)N(C(=O)Nc2c(C)c(N)cc(Cl)c2C)c2ccc(C(C)C)cc2)cc1` [compound 79, (S)-3-(3-amino-5-chloro-2,6-dimethyl-phenyl)-1-(4-isopropyl-phenyl)-1-(1-p-tolyl-ethyl)-urea], the IC50 lay in the range of 200 to 5000 nM.

The series is the same for the next values; noted with them: ratio of enzyme release IC50 values.
With `CCc1c(N)cc(Cl)c(CC)c1NC(=O)N(Cc1ccc(OC)cc1)c1ccc(C(C)C)cc1` [compound 31, 3-(3-amino-5-chloro-2,6-diethyl-phenyl)-1-(4-isopropyl-phenyl)-1-(4-methoxy-benzyl)-urea], the “Increase of the antagonistic activity by a factor (vs compound 24, NH2 group introduced)” value came out at 6.4.

The record behind these values is patent US8071810B2, “C5a receptor antagonists” (Jerini AG, priority 2005, dated 2011).
